The values that follow come from patent US12251383B2, “Methods and compositions for KRAS inhibitors” (The Board of Regents of the University of Texas System, priority 2019, dated 2025).

For assay [1], the target named is GDP-bound KRAS^WT (Homo sapiens, UniProt P01116). Briefly: MST binding, GDP-bound KRAS WT. As to conditions: GDP state. The text has this:
(§1) FIGS. 1A-1D show representative data for the predicted binding mode and measured affinity of disclosed compound 11 to KRAS. (FIG. 1A) Structure of the catalytic domain of KRAS used for the virtual screening. Lobe1 (residues 1-86) and lobe2 (residues 87-166) are highlighted in different colors, as well as switches 1 (residues 30-40) and 2 (residues 60-75). The location of the target allosteric pocket p1 is indicated. (FIG. 1B) Chemical structure of compound 11. (FIG. 1C) Predicted binding pose of compound 11, with the key residues that make polar or vdW contacts with the ligand labeled. (FIG. 1D) Microscale thermophoresis (MST) experiments indicating direct binding of compound 11 to KRAS, along with dissociation constants (KD) derived from the curves. Changes in fluorescence upon titration of […] KRAS with increasing concentration of compound are shown: KRAS^WT (red), KRAS^G12C (green), KRAS^G12D (purple) and KRAS^Q61M (blue), each bound to the non-hydrolyzable GTP analogue, guanylyl imidodiphosphate (GNP). The same experiments indicated no binding to GDP-bound KRAS^G12D and KRAS^WT as well as Rap1B, which was used as control. […]

Assay [2] concerns the target GDP-bound KRAS^G12D (Homo sapiens, UniProt P01116, G12D). The assay is described as follows: MST binding, GDP-bound KRAS G12D. As to conditions: GDP state.
Excerpt: as §1

Assay [3] deals with KRAS (Homo sapiens, UniProt P01116). Briefly: Nucleotide release assay (intrinsic and SOS-mediated). Format: biochemical. On the procedure: (FIG. 6A) Chemical structure of compound 13, an analogue of 11 without a benzene on the pyrimidine core. (FIG. 6B) Predicted binding pose of compound 13. […] See legend of FIGS. 2A-2C for additional details. […] (FIG. 6D) Fluorescence polarization of ^BGTP-γ-SKRAS (0.5 μM) with increasing concentration of GST-Raf^RBD in the absence (red) and presence (green) of 20 μM compound 13. (FIG. 6E) Level of GFP-KRAS^G12D pulled down by GST-Raf^RBD after treatment of whole cell lysates with 10 μM of compound 13 (representative Western blots are shown at the top). The RBD sequence length was 1-149 in the fluorescence polarization assay (FIG. 6D) and 51-131 in the pull-down assay (FIG. 6E). (FIG. 6F) Intrinsic (red) and SOS-mediated (blue) nucleotide release rates were determined. Briefly, fluorescence intensity data obtained in a mixture of 0.5 μM KRAS (and SOS), 100 μM GTP and 0 or 50 μM of compound 13 (top), derived from the changes in during the reaction KRAS^BGDP+GTP→KRAS^GTP+BGDP (bottom). Rates were calculated using single exponential fits starting from 120 s, and are show in the inset to the right of the graph.
Chain of KRAS (P01116 1-188 isoform P01116-2): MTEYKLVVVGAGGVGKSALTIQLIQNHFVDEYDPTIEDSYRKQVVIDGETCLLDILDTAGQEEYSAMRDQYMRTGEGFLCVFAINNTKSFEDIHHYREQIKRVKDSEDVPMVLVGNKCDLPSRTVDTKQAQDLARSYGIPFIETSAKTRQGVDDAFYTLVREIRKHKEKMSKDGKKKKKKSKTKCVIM
Nucleotide exchange and release assays. Loading of fluorescent-labeled GDP (BODIPY-GDP; BGDP from hereon) to KRAS was conducted following previous reports (23, 47), with minor modifications. Purified KRAS was buffer-exchanged in NAP-5 column (GE Life Sciences) in low Mg^2+ buffer (25 mM Tris pH 7.5, 50 mM NaCl, and 0.5 mM MgCl2). The eluate was incubated with 10-fold molar excess of BGDP (Life Technologies) in the presence of 5 mM EDTA and 1 mM DTT for 1.5 h at 20° C. in the dark. […] The concentration of ^BGDPKRAS was determined using Bradford assay and a BGDP standard curve. Then the effect of ligands on the intrinsic rate of nucleotide release was monitored using the decrease in fluorescence with time as BGDP dissociates from KRAS in a 100 μL reaction mixture (96-well plate) of 0.5 μM B^GDPKRAS, 100 μM GTP and varying concentrations of ligand (0 to 25 μM); GTP was added just before measurements. To measure the rate of SOS-mediated nucleotide release, 0.5 μM SOS (residues 564-1049, Cytoskeleton Inc) was added after adding GTP, and fluorescence was immediately read (excitation: 485 nm, emission: 510 nm) using Tecan Infinite M200 plate reader. Intrinsic and SOS-mediated nucleotide exchange rates were monitored with the fluorescence intensity increase of BGTP as it displaces GDP from KRAS. […] Experiments were conducted with minimal light and the reaction was monitored for 2 h at room temperature. Fluorescence intensities were normalized at 120 s and the traces were fit with linear or single exponential functions (Igor Pro, Wavemetrics).
The effect of compound 11 on intrinsic and GEF-dependent nucleotide release and exchange reactions was determined. […]

“Also recorded” adds a separate entry of the source.

Chain of GDP-bound KRAS^WT (P01116 1-188 isoform P01116-2): as above
Chain of GDP-bound KRAS^G12D (P01116 1-188 isoform P01116-2 G12D): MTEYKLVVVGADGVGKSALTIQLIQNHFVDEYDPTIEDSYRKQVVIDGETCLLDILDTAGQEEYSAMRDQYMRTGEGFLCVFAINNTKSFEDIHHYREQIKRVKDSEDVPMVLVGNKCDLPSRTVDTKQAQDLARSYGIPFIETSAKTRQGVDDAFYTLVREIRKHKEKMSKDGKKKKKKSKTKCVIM

In the case of `Cc1cc(N2CCN(CCO)CC2)n2nc(C)c(-c3ccccc3)c2n1` [Compound 13], in assay [1], the “binding (in words)” value was “does not bind”. In assay [2], the “binding (in words)” value is given as “does not bind”. For the same compound, in assay [3] (50 μM compound), the “effect on SOS-mediated nucleotide release rate” value is recorded as “dramatically increased” and the “effect on intrinsic nucleotide release rate” value is “dramatically increased”.
Take `Cc1nn2c(N3CCN(CCO)CC3)cc(-c3ccccc3)nc2c1-c1ccccc1` [Compound 11, 2-[4-(8-methyl-3,9-diphenyl-2,6,7-triazabicyclo[4.3.0]nona-2,4,7,9-tetraen-5-yl)piperazin-1-yl]ethanol]: the “binding (in words)” value in assay [1] is “no binding; also recorded: does not bind”; in assay [2] it was “no binding”. Also, the “effect on SOS-mediated nucleotide release rate” value in assay [3] was “slightly reduced; also recorded: only modestly decreased”. For the same compound, the “effect on intrinsic nucleotide release rate” value in assay [3] is “no effect”.
